Experiments:
emotional pain = assay: Migraine open-label pilot study: emotional pain on 4-point scale (emotional pain-free, emotional pain intensity); format: in vivo, human; conditions: for Emotional pain-free: 48 h; for Change in emotional pain-free / Change in emotional pain-intensity: baseline to 24 h; for Emotional pain-intensity at 24 hours post-dosing / Emotional pain-intensity at baseline: sum of severity of all patients
Procedure: (§1) Sixteen unique patients were enrolled in an open phase pilot study for the acute treatment of migraine attacks, insomnia, and emotional pain. Of the sixteen patients, eleven were evaluated for one migraine attack, one for two attacks, two for four attacks, one for six attacks, and one for fourteen attacks. A total of forty-one […] treatments were evaluated. Patients received a single dose of one of the following treatment options:
(§2) The majority of the patients remained in the clinic for observation for 2 hours after dosing. They completed headache diary assessments immediately before and after dosing at time points: 7, 15, and 30 minutes; and 1, 1.5, 2, 3, 6, 12, 24, and 48 hours. Headache pain was assessed on a 4-point scale (0=none; 1=mild; 2=moderate; 3=severe). The assessment of photophobia, phonophobia, nausea, and neck/shoulder pain was assessed as present or absent. The assessment of emotional pain was recorded on a 4-point scale (0=none, 1=mild, 2=moderate, 3=severe). The assessment of difficulty sleeping or falling asleep (insomnia) was assessed on a 4-point scale (0=none, 1=mild, 2=moderate, 3=severe) at baseline, for the night before treatment and for the following nights at 24, and 48 hours. Patients recorded side effects severity at each time point. Patients recorded the time of the first rescue medication dose and all additional headache medications used within 48 hours. Patients were required to stay awake to record their assessments in the first 2 hours, sleeping was permitted thereafter. While asleep, assessments were completed according to patients' best estimation. For data analysis, it was assumed that a migraine attack is a unique patient. Patients were asked to specify (yes or no answer) to whether they experienced emotional pain symptoms such as: hurt feelings, sadness, fear, or anger. Patients who replied positively to having emotional pain were asked to specify the cause into one of the following options: relationship, work/school, money/debt, health, or loss/grief.

insomnia = assay: Migraine open-label pilot study: insomnia on 4-point scale, night before vs. night after dosing (insomnia-free, insomnia intensity); format: in vivo, human; conditions: for Change in insomnia-free / Change in insomnia-intensity: baseline to night after dosing; for Insomnia-intensity at baseline / Insomnia-intensity at night after dosing: sum of severity of all patients
Procedure: as §1, §2

[1] = 24 hours after dosing, naltrexone/acetaminophen 2.25 mg/325 mg (N=21), naltrexone 2.25 mg (N=9)
[2] = NTX/APAP 2.25 mg/325 mg, NTX 2.25 mg
[3] = NTX/APAP 3.25 mg/325 mg, NTX 3.25 mg
[4] = night after dosing, NTX/APAP 2.25 mg/325 mg, NTX 2.25 mg
[5] = night after dosing, NTX/APAP 3.25 mg/325 mg, NTX 3.25 mg
[6] = night after dosing, NTX/APAP 5 mg/325 mg, NTX 5 mg
[7] = night after dosing, NTX/APAP […]325 mg, NTX 1.5 mg
[8] = night after dosing, naltrexone/acetaminophen 2.25 mg/325 mg (N=21), naltrexone 2.25 mg (N=9)

O=C1CC[C@@]2(O)[C@H]3Cc4ccc(O)c5c4[C@@]2(CCN3CC2CC2)[C@H]1O5 [naltrexone]
Emotional Pain-free at 24 hours after dosing (emotional pain; 24 hours after dosing, NTX/APAP […]325 mg, NTX 1.5 mg): 3 n (%)
emotional pain intensity change from baseline (emotional pain; [1]): −55%
emotional pain-free change from baseline (emotional pain; [1]): 33%
Emotional pain-free (emotional pain; [2]): 9 (100)
Emotional pain-free (emotional pain; [3]): 3 (100)
Emotional pain-free (emotional pain; NTX/APAP 5 mg/325 mg, NTX 5 mg): 1 (100)
Emotional pain-free (emotional pain; NTX/APAP […]325 mg, NTX 1.5 mg): 3 (100)
Emotional pain-free (emotional pain; combined doses): 13 (100) n (%)
Change in emotional pain-free (emotional pain; [2]): +3 (+33) n (%)
Change in emotional pain-intensity (emotional pain; [2]): −5 (−55) n (%)
Change in emotional pain-intensity (emotional pain; [3]): −1 (−100) n (%)
Change in emotional pain-intensity (emotional pain; NTX/APAP 5 mg/325 mg, NTX 5 mg): −2 (−100) n (%)
Change in emotional pain-free (emotional pain; NTX/APAP […]325 mg, NTX 1.5 mg): +1 n (%)
Emotional pain-free at baseline (emotional pain; [2]): 6 (66) n (%)
Emotional pain-free at baseline (emotional pain; [3]): 2 n (%)
Emotional pain-free at baseline (emotional pain; NTX/APAP 5 mg/325 mg, NTX 5 mg): 0 n (%)
Emotional pain-free at baseline (emotional pain; NTX/APAP […]325 mg, NTX 1.5 mg): 2 n (%)
Emotional pain-intensity at 24 hours post-dosing (emotional pain; [2]): 0 n (%)
Emotional pain-intensity at 24 hours post-dosing (emotional pain; [3]): 0 n (%)
Emotional pain-intensity at 24 hours post-dosing (emotional pain; NTX/APAP 5 mg/325 mg, NTX 5 mg): 0 n (%)
Emotional pain-intensity at 24 hours post-dosing (emotional pain; NTX/APAP […]325 mg, NTX 1.5 mg): 0 n (%)
Emotional pain-intensity at baseline (emotional pain; [2]): 5 (55) n (%)
Emotional pain-intensity at baseline (emotional pain; [3]): 1 n (%)
Emotional pain-intensity at baseline (emotional pain; NTX/APAP 5 mg/325 mg, NTX 5 mg): 2 n (%)
Emotional pain-intensity at baseline (emotional pain; NTX/APAP […]325 mg, NTX 1.5 mg): 2 n (%)
Insomnia-free (insomnia; 24 h, combined doses): 11 (69) n (%)
Insomnia-free (insomnia; 24 h time point = night following the day of initial dosing, NTX/APAP 2.25 mg/325 mg, NTX 2.25 mg): 6 (66) n (%)
Insomnia-free (insomnia; 24 h time point = night following the day of initial dosing, NTX/APAP 3.25 mg/325 mg, NTX 3.25 mg): 2 (66) n (%)
Insomnia-free (insomnia; 24 h time point = night following the day of initial dosing, NTX/APAP 5 mg/325 mg, NTX 5 mg): 1 (100) n (%)
Insomnia-free (insomnia; 24 h time point = night following the day of initial dosing, NTX/APAP […]325 mg, NTX 1.5 mg): 2 (66) n (%)
Insomnia-free (insomnia; 48 h, NTX/APAP 2.25 mg/325 mg, NTX 2.25 mg): 8 (88) n (%)
Insomnia-free (insomnia; 48 h, NTX/APAP 5 mg/325 mg, NTX 5 mg): 1 (100) n (%)
Insomnia-free (insomnia; 48 h, combined doses): 2 (13) n (%)
Change in insomnia-free (insomnia; [2]): +2 (22) n (%)
Change in insomnia-intensity (insomnia; [2]): −10 (−111) n (%)
Change in insomnia-free (insomnia; [3]): +1 n (%)
Change in insomnia-intensity (insomnia; [3]): −1 (−50) n (%)
Change in insomnia-free (insomnia; NTX/APAP 5 mg/325 mg, NTX 5 mg): 0 n (%)
Change in insomnia-intensity (insomnia; NTX/APAP 5 mg/325 mg, NTX 5 mg): +2 (+200) n (%)
Change in insomnia-free (insomnia; NTX/APAP […]325 mg, NTX 1.5 mg): 0 n (%)
Change in insomnia-intensity (insomnia; NTX/APAP […]325 mg, NTX 1.5 mg): −2 (−66) n (%)
Insomnia-free at baseline (insomnia; [2]): 4 (44) n (%)
Insomnia-free at baseline (insomnia; [3]): 1 n (%)
Insomnia-free at baseline (insomnia; NTX/APAP 5 mg/325 mg, NTX 5 mg): 0 n (%)
Insomnia-free at baseline (insomnia; NTX/APAP […]325 mg, NTX 1.5 mg): 2 n (%)
Insomnia-free at night after dosing (insomnia; [4]): 6 (66) n (%)
Insomnia-free at night after dosing (insomnia; [5]): 2 (66) n (%)
Insomnia-free at night after dosing (insomnia; [6]): 0 n (%)
Insomnia-free at night after dosing (insomnia; [7]): 2 n (%)
insomnia intensity change from baseline (insomnia; [8]): −111%
insomnia-free change from baseline (insomnia; [8]): 22%
insomnia intensity improved by (insomnia; night before vs. night after treatment, naltrexone 2.25 mg (n=9)): 111%
Insomnia-intensity at baseline (insomnia; [2]): 14 (155) n (%)
Insomnia-intensity at baseline (insomnia; [3]): 2 n (%)
Insomnia-intensity at baseline (insomnia; NTX/APAP 5 mg/325 mg, NTX 5 mg): 1 n (%)
Insomnia-intensity at baseline (insomnia; NTX/APAP […]325 mg, NTX 1.5 mg): 3 n (%)
Insomnia-intensity at night after dosing (insomnia; [4]): 4 (44) n (%)
Insomnia-intensity at night after dosing (insomnia; [5]): 1 n (%)
Insomnia-intensity at night after dosing (insomnia; [6]): 3 n (%)
Insomnia-intensity at night after dosing (insomnia; [7]): 1 n (%)

Source: US11058680B2, “Combinations of opioid/TLR4 antagonists and acetaminophen for use in the treatment of emotional pain and insomnia” (Allodynic Threapeutics, LLC, priority 2016, dated 2021)
